# According to patent US4071680A, “5'-Deoxy-5-fluoropyrimidine nucleosides” (Hoffmann-La Roche Inc., priority 1976, dated 1978):
# Read-outs that look alike come from different tables or passages of the source.
# Key:
# [1] = test system: Burkitt's cell cultures; conditions: Falco and Fox, J. Med. Chem. 11, 148 (1968); cited from earlier work
# [2] = test system: L1210 leukemia cell cultures; conditions: Falco and Fox, J. Med. Chem. 11, 148 (1968); cited from earlier work
# [3] = test system: Sarcoma 180 Tumor; assay type: in vivo, albino mice
# Procedure: (§1) All compounds were dissolved in water for administration to animals.
# (§2) Small pieces of tumor (20-30mg) were implanted subcutaneously by trocar into the right inguinal region of 18-20 g albino mice. The fragments were obtained from donors bearing firm subcutaneous tumors implanted 7-10 days previously. Treatment was begun on the day of implantation and continued once daily for a total of 8 treatments. The animals were sacrificed 8 days after implantation and the tumors excised and weighed. The ratio of the average weight of the tumors from the untreated control group (C) divided by the average weight of the tumors from the treated group (T) was calculated. The percent inhibition of tumor growth was calculated from the formula:
# (§3) % Inhibition = 100 (C-T)/C . The compound was considered to be active at a particular dose if % inhibition ≥ 50%.
# (§4) Results obtained from experiments, utilizing compounds of the present invention and representative prior art compounds are summarized below in Table 1.
# Effect of Pyrimidine Nucleosides Against Sarcoma 180 Tumor in Mice
# (active doses are those which produce ≥50% tumor inhibition)
# [4] = test system: Yoshida sarcoma; conditions: Japanese Pat. No. 51-086481; cited from earlier work
# [5] = test system: Ehrlich Carcinoma; assay type: in vivo, albino mice
# Procedure: as §1, §2, §3
# The solid form of this tumor was produced by subcutaneous implantation of 0.5 ml of a 1-10 saline - diluted ascitic tumor cell suspensions derived from 18-20 g albino donor mice implanted 7-10 days previously. Treatment and evaluation procedures were identical to those used for Sarcoma 180.
# as §4
# Effect of pyrimidine Nucleosides Against Ehrlich Carcinoma in Mice
Compound,"Percent Inhibition of tumor growth ([3]; 100 mg/kg × 8, ip) [%]","Percent Inhibition of tumor growth ([3]; 200 mg/kg × 8, ip) [%]","Percent Inhibition of tumor growth ([3]; 200 mg/kg × 8, po) [%]","Percent Inhibition of tumor growth ([3]; 400 mg/kg × 8, ip) [%]","Percent Inhibition of tumor growth ([3]; 6.25 mg/kg × 8, po) [%]","Percent Inhibition of tumor growth ([3]; 12.5 mg/kg × 8, ip) [%]","Percent Inhibition of tumor growth ([3]; 12.5 mg/kg × 8, po) [%]","Percent Inhibition of tumor growth ([3]; 25 mg/kg × 8, ip) [%]","Percent Inhibition of tumor growth ([3]; 25 mg/kg × 8, po) [%]","Percent Inhibition of tumor growth ([3]; 50 mg/kg × 8, ip) [%]","Percent Inhibition of tumor growth ([3]; 50 mg/kg × 8, po) [%]","Percent Inhibition of tumor growth ([3]; 100 mg/kg × 8, po) [%]","Percent Inhibition of tumor growth ([3]; 400 mg/kg × 8, po) [%]","Percent Inhibition of tumor growth ([5]; 25 mg/kg × 8, ip) [%]","Percent Inhibition of tumor growth ([5]; 25 mg/kg × 8, po) [%]","Percent Inhibition of tumor growth ([5]; 50 mg/kg × 8, ip) [%]","Percent Inhibition of tumor growth ([5]; 50 mg/kg × 8, po) [%]","Percent Inhibition of tumor growth ([5]; 100 mg/kg × 8, ip) [%]","Percent Inhibition of tumor growth ([5]; 100 mg/kg × 8, po) [%]","Percent Inhibition of tumor growth ([5]; 200 mg/kg × 8, ip) [%]",also measured
C[C@H]1O[C@@H](n2ccc(N)nc2=O)[C@@H](O)[C@@H]1O [1-(5'-deoxy-β-D-arabinofuranosyl) cytosine],,,,,,,,,,,,,,,,,,,,,activity against Burkitt's cell cultures [1]: inactive; activity against L1210 leukemia cell cultures [2]: inactive
"C[C@H]1O[C@@H](n2cc(F)c(=O)[nH]c2=O)C[C@@H]1O [2',5'-Dideoxy-5-Fluorouridine, reference compound]",37,68,34,81,,,,,,,,,,,,,,,,,inhibition of growth of Yoshida sarcoma [4]: inhibiting the growth of Yoshida sarcoma
C[C@H]1O[C@@H](n2cc(F)c(N)nc2=O)[C@H](O)[C@@H]1O [5'-Deoxy-5-Fluorocytidine],86,93,82,95,26,37,62,64,76,72,65,76,92,45,37,57,58,65,71,72,"Percent Inhibition of tumor growth ([5]; 200 mg/kg × 8, po): 80%; Percent Inhibition of tumor growth ([5]; 400 mg/kg × 8, ip): 91%; Percent Inhibition of tumor growth ([5]; 400 mg/kg × 8, po): 95%; Percent Inhibition of tumor growth ([5]; 800 mg/kg × 8, po): 99%"
C[C@H]1O[C@@H](n2cc(F)c(=O)[nH]c2=O)[C@H](O)[C@@H]1O [5'-Deoxy-5-Fluorouridine],88,88,90,,68,43,73,67,75,89,80,83,90,43,27,59,56,71,70,86,"Percent Inhibition of tumor growth ([3]; 1.56 mg/kg × 8, po): 30%; Percent Inhibition of tumor growth ([3]; 3.12 mg/kg × 8, po): 51%; Percent Inhibition of tumor growth ([5]; 200 mg/kg × 8, po): 90%; Percent Inhibition of tumor growth ([5]; 400 mg/kg × 8, ip): 98%; Percent Inhibition of tumor growth ([5]; 400 mg/kg × 8, po): 98%; Percent Inhibition of tumor growth ([5]; 800 mg/kg × 8, po): 99%"
"C[C@H]1O[C@@H](n2ccc(=O)[nH]c2=O)[C@H](O)[C@@H]1O [5'-Deoxyuridine, reference compound]",41,9,,,,,,,,,,,,,,,,,,,
